Legend:
Format in all cases: cell-based, human
[1] = tested on: Caco-2 cells; test: Production of nitric oxide (nitrite, GRIESS method) by Caco-2 colon epithelial cell line; conditions: Caco-2, L-NAME 1 mM, in the presence or absence of total extract of L. casei (3% v/v) (FIG. 2)
Protocol: (§1) Each of the 2 lines was seeded at 2×10^5 cells/well in 96-well plates, in DMEM medium supplemented with 5% of SVF, with 100 U/ml of penicillin, with 100 μg/ml of streptomycin and with 2 mM of L-glutamine.
(§2) The cells are pre-incubated for 24 hours at 37° C., 5% CO2, in the presence of CYTOMIX (IL-1β: 10 ng/ml, TNF-α: 25 ng/ml and γ-IFN: 10^3 U/ml mixture). The cells are then incubated for a further 24 hours in the presence or absence of increasing amounts of total extracts of L. casei (in % vol/vol).
(§3) After incubation, the culture supernatants are recovered and frozen, before determining the nitrite concentration. For certain experiments, L-NAME (1 mM), which is an analogue of L-arginine and constitutes a competitive inhibitor specific for NO-synthases, is added at the same time as the extracts of L. casei.
(§4) The amount of NO produced is evaluated by assaying, in the culture supernatants, the stable derivatives of this radical after reaction thereof in aqueous medium: the nitrites and nitrates. The nitrates are, initially, reduced to nitrites with bacteria expressing nitrate reductase, and the nitrites are then assayed using the GRIESS method. […] The absorbances are then determined at 540 nm using a MULTISCAN MCC340 reader (LABSYSTEM).

[2] = tested on: HT-29 cells; test: Production of TNF-α and IL-1β by HT-29 cells (ELISA of culture supernatants); conditions: HT-29 preactivated with CYTOMIX, with total extract of L. casei; L-NAME 1 mM or PDTC 10 pM (FIG. 3)
Protocol: (§5) Each of the 2 lines was seeded at 2×10^6 cells/well in 24-well plates, in DMEM medium supplemented with 5% of SVF, with 100 U/ml of penicillin, with 100 μg/ml of streptomycin and with 2 mM of L-glutamine. The cells are then incubated for 24 hours in the presence of CYTOMIX, and then for a further 24 hours in the presence of the total extracts of L. casei. For certain experiments, L-NAME (1 mM) or an inhibitor of the NFκB transduction pathway (PDTC: 10 pM) are added at the same time as the bacterial extracts. The culture supernatants are then recovered and the cytokine concentration thereof is determined by ELISA.

[3] = tested on: Caco-2 cells; test: Production of TNF-α and IL-1β by Caco-2 cells (ELISA of culture supernatants); conditions: Caco-2 preactivated with CYTOMIX, with total extract of L. casei; L-NAME 1 mM or PDTC 10 pM (FIG. 3)
Protocol: as §5

[4] = tested on: HT-29 cells; test: Production of nitric oxide (nitrite, GRIESS method) by HT-29 colon epithelial cell line; conditions: HT-29, L-NAME 1 mM, in the presence or absence of total extract of L. casei (3% v/v) (FIG. 2)
Protocol: as §1, §2, §3, §4

COC(=O)[C@@H](N)CCCNC(=N)N[N+](=O)[O-] [L-NAME]
inhibited: effect on CYTOMIX-induced production of NO [1] | effect of inhibitor on production of TNF-α [2] | effect of inhibitor on production of TNF-α [3] | effect on CYTOMIX-induced production of NO [4]

S=C(S)N1CCCC1 [PDTC]
inhibited: effect of inhibitor on production of TNF-α [2] | effect of inhibitor on production of TNF-α [3]
